# From patent US11173144B2, “Adrenergic receptor modulating compounds and methods of using the same” (The Board of Trustees of the Leland Stanford Junior …, priority 2016, dated 2021)
# “Also recorded” adds a separate entry of the source.
# How the values were obtained:
# [1] = target: ADRB1 (Homo sapiens (Human), UniProt P08588); experiment: cAMP assay (homogenous time-resolved fluorescence) in HEK-293 cells stably expressing human recombinant ADRB1; format: cell-based; conditions: Table 4
# Procedure: Pharmacological effects of compounds at the cAMP pathway mediated by ADRB1 are evaluated by measuring cAMP production using the homogenous time-resolved fluorescence detection method with HEK-293 cells stably expressing human recombinant ADRB1. Briefly, cells are suspended in HBSS buffer completed with 20 mM HEPES (pH 7.4) and 500 μM IBMX (3-isobutyl-1-methylxanthine) and distributed at a density of 3×10^3 cells/well. […] The results are expressed as a percent of the maximum efficacy achieved with isoproterenol. Pharmacological effects of compounds at the cAMP pathway mediated by ADRB2 and ADRB3 are measured as described above using CHO cells stably expressing human recombinant ADRB2 and human SK-N-MC neurotumor cells endogenously expressing ADRB3, respectively.
# After 30 minute incubation with compounds, the cells are lysed and the fluorescence donor (Europium-chelated-labeled cAMP tracer; Eu-cAMP tracer) and fluorescence acceptor (cAMP-specific monoclonal antibodies labeled with the ULight™ dye) are added. […] The results are expressed as a percent of the control response to 10 μM isoproterenol. For subtype selectivity determination, same procedure is performed using Chinese hamster ovary (CHO) cells stably expressing human β2-adrenergic receptors or SK-N-MC human neuroblastoma cell line expressing β3-adrenergic receptors.
# ADRB1 EC50 from functional assay (nM)^a, Determined using the homogenous time-resolved fluorescence detection method with HEK-293 cells stably expressing human recombinant ADRB1. ADRB2 IC50 from binding assay(nM)^b, Determined using the Tag-lite Adrenoceptor Beta2 receptor ligand binding assay.
# [2] = target: 5-HT2B (Homo sapiens (Human), UniProt P41595); experiment: CNS target panel screen: 5-HT2B; format: binding
# Text: From a drug development perspective, characterizing the off-target effects of lead compounds is an important issue, as interactions with off-target molecules may lead to undesirable side effects. Thus we screened xamoterol (S) and the key compound compound 43 against a panel of CNS relevant targets, including G-protein coupled receptor and transporters.
# [3] = system: Abeta-induced LTP impairment in hippocampal slices; experiment: Long-term potentiation in hippocampal slices exposed to amyloid beta; conditions: mouse hippocampal slices, 10 uM
# Procedure: Mice were anesthetized with isoflurane before decapitation. The brain was quickly removed and immersed for 2 min in ice-cold low-calcium modified artificial cerebrospinal fluid (mACSF) composed of (in mM): 119 NaCl, 2.5 KCl, 1 CaCl2, 3 MgSO4, 1 NaH2PO4, 26 NaHCO3 and 10 glucose, osmolarity ˜305 mOsm, continuously bubbled with 95% O2-5% CO2, pH=7.4. The hippocampus was dissected out and cut in ice-cold mACSF with a vibratome (Leica VT1000S; Nussloch, Germany) into […] slices from the middle part of the hippocampus. The slices were allowed to recover in oxygenated mACSF at 33° C. for 10 min, and then at room temperature for an additional 2-3 hr before experimental recordings. Slices were transferred into the recording chamber and superfused with regular ACSF containing (in mM): 119 NaCl, 2.5 KCl, 2.5 CaCl2, 1.3 MgSO4, 1 NaH2PO4, 26 NaHCO3 and 10 glucose, continuously bubbled with 95% O2-5% C02, pH=7.4, osmolarity ˜305 mOsm, at a constant rate of 2.7 mL/min at 32° C. […] The initial slope of field excitatory postsynaptic potentials (fEPSP) was measured at latencies 0.1-0.9 ms. […] After stabilization of responses, input-output dependences were measured using series of stimulation intensities (range 30-150 μA). […] LTP was induced by high-frequency tetanization ([…], 100 Hz for 1 sec), and the responses were recorded for the period of 1.5 h after the tetanus.
# [4] = system: transient middle cerebral artery occlusion (tMCAO) model of stroke; experiment: tMCAO model of stroke, infarction volume; format: in vivo; conditions: rat tMCAO, 3 mg/kg, 21 days
# Procedure: The tMCAO is performed on animal under isoflurane inhalation anesthesia (4% for induction and 1.5-2.5% for maintenance) in airoxygen mixture ratio 3:1. Ventral neck area is shaved by electric razor and disinfected using betadine followed by 70% ethanol solution. Subsequently, a midline incision is made in the ventral neck area, sharp and blunt dissection techniques are used to isolate left common carotid artery (CCA) and the internal and external carotid arteries (ICA and ECA, respectively). The proximal CCA is ligated below the bifurcation using 3-0 braided silk suture allowing enough room for filament insertion in the area between the ligation and bifurcation. Subsequently, ECA is ligated at its origin dose to the CCA bifurcation, so that the occipital artery stays proximal to the ligature. A microvessel dip is placed on ICA temporarily to avoid excessive bleeding during filament insertion. In order to occlude the origin of middle cerebral artery (MCA), a monofilament with silicon coated tip (0.39 mm diameter, 5-6 mm long) is then inserted into the CCA, the microvessel dip removed following filament advancement into the ICA 20 mm from the bifurcation through small, horizontal incision. The filament is secured in its place by a suture knot placed between the bifurcation and proximal CCA ligature. […]
# Sequence of ADRB1 (P08588 whole entry): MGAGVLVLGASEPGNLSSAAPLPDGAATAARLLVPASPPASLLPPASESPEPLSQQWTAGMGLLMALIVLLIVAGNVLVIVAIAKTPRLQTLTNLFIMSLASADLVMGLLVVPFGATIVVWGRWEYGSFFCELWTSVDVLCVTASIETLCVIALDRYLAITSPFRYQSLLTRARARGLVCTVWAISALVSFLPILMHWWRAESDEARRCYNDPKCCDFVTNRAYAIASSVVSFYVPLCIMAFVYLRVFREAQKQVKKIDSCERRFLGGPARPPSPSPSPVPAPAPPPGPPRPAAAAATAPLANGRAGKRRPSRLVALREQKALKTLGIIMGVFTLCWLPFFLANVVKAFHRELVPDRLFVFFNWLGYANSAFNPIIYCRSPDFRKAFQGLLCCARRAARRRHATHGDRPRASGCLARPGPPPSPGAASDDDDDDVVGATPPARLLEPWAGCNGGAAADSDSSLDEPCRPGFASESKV
# Sequence of 5-HT2B (P41595 whole entry, species assumed): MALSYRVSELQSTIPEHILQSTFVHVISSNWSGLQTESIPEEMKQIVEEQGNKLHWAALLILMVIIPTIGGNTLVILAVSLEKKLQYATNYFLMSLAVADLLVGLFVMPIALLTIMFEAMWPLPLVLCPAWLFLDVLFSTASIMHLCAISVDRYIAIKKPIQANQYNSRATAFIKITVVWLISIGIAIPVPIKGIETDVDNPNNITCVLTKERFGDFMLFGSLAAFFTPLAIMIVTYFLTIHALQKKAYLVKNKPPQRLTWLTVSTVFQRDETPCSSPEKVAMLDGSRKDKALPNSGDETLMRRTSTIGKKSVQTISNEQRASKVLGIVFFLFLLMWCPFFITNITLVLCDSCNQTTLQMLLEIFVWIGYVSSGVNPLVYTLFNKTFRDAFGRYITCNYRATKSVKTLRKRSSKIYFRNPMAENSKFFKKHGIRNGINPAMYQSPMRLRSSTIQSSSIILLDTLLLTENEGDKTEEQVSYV
structure (smiles),measurement,setting,value
COc1ccccc1OCCNC[C@H](O)COc1ccc(O)cc1 [Compound 43],Emax,"[1]; HEK293, 0.5 h, percent efficacy compared to the maximum response achieved with isoproterenol, read-out: cAMP pathway % Iso max",83.3 ± 15.7%
same,EC50,[1]; read-out: cAMP pathway ADRB1 EC50,10 to 100 nM
same,affinity for 5-HT2B,[2],significant affinity
"O=C(NCCNCC(O)COc1ccc(O)cc1)N1CCOCC1 (centres unmarked) [Xamoterol, reference compound]",amyloid beta-induced LTP impairment,[3],blocks the LTP impairment induced by Ab; also recorded: blocks the Ab-induced LTP in impairment
same,infarction volume,[4],reduces infarction volume
